Here are results for nine substances from US7538185B2, “Glucagon-like peptide-1 analogs with long duration of action” (Theratechnologies Inc., priority 2004, dated 2009).

What is called EC50 is the concentration giving half of the maximal effect. A higher EC50 goes with a less potent agent.

The target of data set [1] is T1, GLP-1 receptor in RINm5F cells (Rattus norvegicus, UniProt P32301).
T1 construct: The cell membranes were diluted to obtain aliquots of 400 μg of protein per assay tube; host or cells: RINm5F cells, sonicated to a membrane preparation
T1 sequence (P32301 22-463): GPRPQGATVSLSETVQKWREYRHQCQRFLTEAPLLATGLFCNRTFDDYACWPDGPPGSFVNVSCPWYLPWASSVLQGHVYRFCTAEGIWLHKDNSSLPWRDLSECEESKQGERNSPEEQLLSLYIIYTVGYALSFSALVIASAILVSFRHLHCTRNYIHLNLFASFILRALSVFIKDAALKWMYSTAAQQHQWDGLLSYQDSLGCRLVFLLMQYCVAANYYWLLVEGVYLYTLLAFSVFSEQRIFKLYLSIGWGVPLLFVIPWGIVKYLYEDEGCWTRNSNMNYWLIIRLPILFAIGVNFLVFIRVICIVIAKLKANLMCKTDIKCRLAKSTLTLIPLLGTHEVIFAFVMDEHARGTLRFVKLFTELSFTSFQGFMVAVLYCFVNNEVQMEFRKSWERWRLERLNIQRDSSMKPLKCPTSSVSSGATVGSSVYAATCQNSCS
Kind of data set: Displacement of 125I-GLP-1(7-36)NH2 using RINm5F cells (Example 4, FIG. 3). It is filed as binding. Particulars: RINm5F cell membranes, 400 μg protein, 22° C., 45 minutes. As for the experimental part: The IC50 is calculated as the half-maximal inhibition of binding of the radiolabeled peptide; RINm5F cells (ATCC # CRL-2058) were grown according to the manufacturer's specifications. Cells from confluent flasks were maintained for four (4) days prior to the experiment. The cells were then scrapped and collected in 15 ml conical tubes followed by sonication and evaluation of protein levels. The cell membranes were diluted to obtain aliquots of 400 μg of protein per assay tube. Aliquots of RINm5F cells containing 400 μg of protein were incubated at 22° C. […] The reactions were stopped using 100 mM Tris-HCl (3×3 mL, pH 7.4) and the solutions passed through a GF/C Whatman glass microfiber filter. The latter was subsequently placed into glass tubes and counted on a Packard COBRA II Gamma counter™. Displacement isotherms were traced and analyzed using Prism™ (GraphPad, Ca).
(In general: Loss of bound radioactivity is the signal in a displacement assay; it reports binding, not function.)

Data set [2] relates to cAMP production in RINm5F cells. Kind of data set: cAMP production in RINm5F cells (Example 5). The format is cell-based. The note with it: 30 minutes at 37° C., 0.1 mM IBMX, mean ± SEM. As for the experimental part: RINm5F cells (ATCC # CRL-2058) were grown according to the manufacturer's specifications. Cells from approximately 90% confluent flasks were trypsinized and counted. […] Samples of the stock solutions were then aliquoted in 100 μl volumes (100 μg), to which were then added 400 μl H2O. The aliquots were then frozen and lyophilized overnight. The lyophilized samples were kept at −80° C. until used. The samples were prepared just prior to running the experiments, at a concentration of 1 mM (accounting for peptide purity and peptide content when available). From 2× stock solutions, dose-responses (10^−10 M to 10^−5 M) were measured in RPMI containing 0.1 mM IBMX. […] Cell culture media was gently aspired from the wells. The cells were then pre-incubated in 100 μl RPMI 0.1 mM IBMX at 37° C. for 10 minutes. […] At the end of the incubation period, the supernatant was collected and assayed for cAMP concentration, using a radioimmunoassay kit (DPC). Radioactive counts were transformed into cAMP amounts using a standard curve. The obtained cAMP values were corrected for the total protein in the corresponding wells as determined using the Coomassie blue assay. The cAMP values are expressed as mean ±SEM in pmol/mg protein (Table 3). Dose responses of cAMP were fitted to a sigmoidal curve model (fixed slope) using GraphPad Prism 3.02™. When performing a protein assay, the amount of protein per well is assayed for each sample. The cells were lysed with NaOH (0.1 N) and a 10 μl aliquot was used to assay the protein levels. This is done using Coomassie Blue (Pierce) and an automated plate reader Emax Pro™ (Molecular Devices).
On the technique in general: cAMP levels reflect the balance of adenylyl cyclase and phosphodiesterase activity.

For data set [3] the following is noted: Nauck 1996; Todd 1998; cited from earlier work.
For data set [4] the following is noted: active GLP-1; Holst 1994; cited from earlier work.
For data set [5], the system named is CD-1 mice. Kind of data set: Post-prandial blood glucose levels in CD-1 mice (Example 2, FIG. 1). Particulars: CD-1 mice fasted overnight, fed 30 minutes, peptides 400 μg/kg sc, blood glucose followed 6 hours. The format is in vivo. As for the experimental part:
Various peptides, including peptides of the present invention (400 μg/kg), were administered sc at 30 minutes and the blood glucose levels were determined for the next 6 hours. The data are presented as mean ±SEM values;
Overnight fasted CD-1 normal female mice (6 wk. Charles River, Montreal, Canada), were fed ad libidum for 30 minutes. […] Blood samples were drawn by tail vein excision and blood glucose levels (mmol/L) were determined for the next 6 hours using a One-Touch™ glucometer.

For data set [6], the system named is Sprague-Dawley rats. Kind of data set: Blood glucose levels in Sprague-Dawley rats under hyperglycemic clamping (Example 3, FIG. 2). The format is in vivo. Particulars: hyperglycemic clamping at 15 mM, sc. On the procedure:
Various peptides, including peptides of the present invention (100 μg/kg) were administered sc. Alterations in blood glucose levels (Delta glucose: mM) are shown on the abscissa. The data are presented as mean ±SEM values;
The animals (Sprague-Dawley rats) were maintained on standard laboratory chow under a 12:12 light:dark cycle. Following a 12 hour fasting period, the animals were anesthetized (Isoflurane 2%) and a carotid and jugular catheter installed to allow blood withdrawal and glucose injections (1.0 g/kg bolus followed by an infusion of 1.4 g/kg/hr) respectively. The animals received a subcutaneous injection of the analogs at different concentrations (300 μg/kg) 90 minutes after initiating the glucose bolus and infusion, at a time period where blood glucose concentrations have reached a steady level. Blood glucose measurements were taken prior to and 30, 60, 90, 100, 110, 120, 135, 150, 180, 210, and sometimes 240 and 300 minutes after the injection of glucose.
Glucose measurements were carried out immediately following sampling (0.3-0.4 ml; if needed) by placing a blood droplet on a glucometer strip. The glucose measurements were carried out prior to plasma separation (centrifugation) required to perform the insulin and/or any other assay.

For data set [7], the system named is streptozotocin-induced diabetic CD-1 mice. Kind of data set: Glucose lowering in fed streptozotocin-induced diabetic CD-1 mice (Example 8, FIGS. 12-16). It is filed as in vivo. Particulars: for glucose levels of streptozotocin-induced diabetic mice / duration of action: fed STZ-induced diabetic CD-1 mice, sc; for duration of action: FIGS. 12-16. As for the experimental part:
Blood glucose levels were measured for 12 hours post-injection (mean ±SEM; upper panel). […] In order to compare the duration of the effects of TH0396 and Exendin-4™, the glucose levels at the last hour of observation were analyzed in a dose-dependent manner. […] At 10:00 am, the animals were injected subcutaneously with the agent. Blood glucose levels were measured for 12 hours post-injection (mean ±SEM; upper panel). Average glucose levels at 11 and 12 hours are presented after subtracting the fed glucose levels of normal mice (n is the number of animals as presented on top of the lower panel bars). The animals (CD-1 mice) were maintained on standard laboratory chow under a 12:12 light:dark cycle. The animals were kept in groups of 4 mice per cage. […] The amount of food eaten was monitored for the duration of the experiment. […] A small piece of the tip of the tail of the CD-1 mice was cut with a scalpel and a drop of blood drawn by applying light pressure with the thumb and index from the base of the tail to the tip. The drop of blood was placed on a glucometer strip (Accucheck™ compact, Roche) and a reading obtained. The scab was removed and the same procedure applied for each subsequent measurement.

Data set [8] has as its system CD-1 mice. In words: Post-prandial glucose lowering in fed CD-1 mice (Example 6, FIG. 4). It is filed as in vivo. Particulars: 400 μg/kg sc, AUC glucose over 6 hours. On the procedure: Post-prandial AUC glucose levels for a 6 hour period are presented as a bar (mean ±SEM; n=the number of animals as presented above the bar). […] FIGS. 5, 6, 7 and 8 illustrate the effect (dose response) on post-prandial glucose levels in CD-1 mice for selected analogs. […] The blood glucose levels were measured for a period of up to 6 hours following injection (mean ±SEM; upper panel). The AUC glucose for the 6 hours period is presented as a bar (mean ±SEM; lower panel; n is the number of animals as presented on top of the lower panel bars); The animals (CD-1 mice) were maintained on standard laboratory chow under a 12:12 light:dark cycle. The animals were kept in groups of 4 mice per cage. […] The amount of food eaten was monitored. The food was then removed and the animals were injected subcutaneously with either vehicle or with a GLP-1 analogue to be tested. […] A small piece of the tip of the tail of the CD-1 mice was cut with a scalpel and a drop of blood drawn by applying light pressure with the thumb and index from the base of the tail to the tip. The drop of blood was placed on a glucometer strip (Accucheck™ compact, Roche) and a reading obtained. The scab was removed and the same procedure applied for each subsequent measurement.

Take “His-Ala-Glu-Gly-Thr-Phe-Thr-Ser-Asp-Val-Ser-Ser-Tyr-[(S)-Octylglycine]-Glu-Gly-Gln-Ala-Ala-Lys-Glu-Phe-Ile-Ala-Trp-Leu-Val-Lys-Gly-Arg-NH2 [TH0322]”: the “potency in displacing receptor bound ligand (125I-GLP-1(7-36)NH2)” value in data set [1] was “considerably more potent than GLP-1”. Also, in data set [2], the midpoint of the response, the EC50, lay at 0.2 ± 0.2 nM and the Maximal response is recorded as 1.0 ± 0.2 pmol/mg protein.
As for “HAEGTFTSDVSSYLEGQAAKEFIAWLVKGR [GLP-1, reference compound]”, in data set [2], the midpoint of the response, the EC50, lay at 1.8 ± 0.9 nM and the Maximal response came out at 1.5 ± 0.3 pmol/mg protein. The “duration of hypoglycemic action” value in data set [3] is 2 to 3 h. The metabolic clearance rate in data set [4] is 12 to 13 min. In addition, the “duration of hypoglycemic action” value in data set [5] came out at 2 h.
In data set [2], “2-Hydroxybenzoyl-NH-His-Ala-Glu-Gly-Thr-Phe-Thr-Ser-Asp-Val-Ser-Ser-Tyr-Leu-Glu-Gly-Gln-Ala-Ala-Lys-Glu-Phe-Ile-Ala-Trp-Leu-Val-Lys-Gly-Arg-NH2 [TH0318]” registered an EC50 of 13.6 ± 2.9 nM and a Maximal response of 3.5 ± 0.2 pmol/mg protein. The “duration of hypoglycemic action” value in data set [5] came to 2 h.
As to “His-Gly-Glu-Gly-Thr-Phe-Thr-Ser-Asp-Val-Ser-Ser-Tyr-Leu-Glu-Gly-Gln-Ala-Ala-Lys-Ala-Phe-lle-Glu-Trp-Leu-Lys-Asn-NH2 [TH0384]”, the “potency in displacing receptor bound ligand (125I-GLP-1(7-36)NH2)” value in data set [1] is on record as “considerably more potent than GLP-1”. Moreover, the “potency on blood glucose levels (delta glucose)” value in data set [6] is reported as “more potent than GLP-1 or the 2-hydroxybenzoyl-GLP-1 analog TH0318”.
For “trans-3-hexenoyl-NH-His-Ala-Glu-Gly-Thr-Phe-Thr-Ser-Asp-Val-Ser-Ser-Tyr-[(S)-Octylglycine]-Glu-Gly-Gln-Ala-Ala-Lys-Ala-Phe-Ile-Glu-Trp-Leu-Lys-Asn-NH2 [TH0395]”, in data set [2], a half-maximal effect (EC50) was put at 6.1 ± 0.9 nM and the Maximal response was found to be 3.7 ± 0.4 pmol/mg protein. The “potency compared with Exendin-4” value in data set [7] (STZ-induced diabetic mice, initial 6 hours of the study, FIG. 14) is “more potent then Exendin-4™”. In data set [7], the “glucose levels of streptozotocin-induced diabetic mice” value was “down to those seen in normal feeding mice” and the duration of action entry was “extended duration of action”. In addition, the “reduction of post-prandial glucose” value in data set [8] is on record as “potently reduce post-prandial glucose”.
Consider “trans-3-hexenoyl-NH-His-Ala-Glu-Gly-Thr-Phe-Thr-Ser-Asp-Val-Ser-Ser-Tyr-[(S)-Octylglycine]-Glu-Gly-Gln-Ala-Ala-Lys-Ala-Phe-Ile-Glu-Trp-Leu-Val-Lys-Asn-NH2 [TH0396]”, for which, in data set [2], it took 2.3 ± 1.7 nM to reach a half-maximal effect (EC50) and the Maximal response is listed as 3.9 ± 0.3 pmol/mg protein. Besides, in data set [7], the “glucose levels of streptozotocin-induced diabetic mice” value is “down to those seen in normal feeding mice” and the duration of action entry is reported as “extended duration of action”. For the same substance, the “reduction of post-prandial glucose” value in data set [8] was “potently reduce post-prandial glucose”.
Take “His-Gly-Glu-Gly-Thr-Phe-Thr-Ser-Asp-Val-Ser-Ser-Tyr-[(S)-Octylglycine]-Glu-Gly-Gln-Ala-Ala-Lys-Ala-Phe-Ile-Glu-Trp-Leu-Lys-Asn-NH2 [TH0397]”: the “reduction of post-prandial glucose” value in data set [8] is “potently reduce post-prandial glucose”.
In data set [2], “trans-3-hexenoyl-NH-His-Ala-Glu-Gly-Thr-Phe-Thr-Ser-Asp-Val-Ser-Ser-Tyr-[(S)-Octylglycine]-Glu-Gly-Gln-Ala-Ala-Lys-Glu-Phe-Ile-Ala-Trp-Leu-Val-Lys-Aib-Arg-NH2 [TH0426]” had an EC50 of 0.4 ± 0.4 nM and a Maximal response of 5.7 ± 0.6 pmol/mg protein.
Consider “trans-3-hexenoyl-NH-His-Ala-Glu-Gly-Thr-Phe-Thr-Ser-Asp-Val-Ser-Ser-Tyr-[(S)-Octylglycine]-Glu-Gly-Gln-Ala-Ala-Lys-Glu-Phe-Ile-Ala-Trp-Leu-Val-Lys-Gly-Arg-NH2 [TH0424]”, for which, in data set [2], the EC50 came out at 6.3 ± 1.7 nM and the Maximal response was 4.3 ± 0.2 pmol/mg protein. In data set [7], the “glucose levels of streptozotocin-induced diabetic mice” value is on record as “down to those seen in normal feeding mice” and the duration of action entry is listed as “extended duration of action”. Further, in data set [8], the “reduction of post-prandial glucose” value was “potently reduce post-prandial glucose”.
